ChEMBL document CHEMBL3112526, “20S proteasome as novel biological target for organochalcogenanes” (Eur J Med Chem, 2014)
pIC50: −log10 of the molar value. The source made the active and inactive calls. The rule behind the calls is not given here.

Key:
Equus caballus [1] = organism: Equus caballus; experiment: Inhibition of horse erythrocytes chymotrypsin like activity of beta5-20S proteasome using suc-LLVY-AMC as substrate at 100 uM measured for 60 mins by fluorescence assay
[2] = Inhibition of horse erythrocytes trypsin like activity of beta2-20S proteasome using z-ARR-AMC as substrate measured for 60 mins by fluorescence assay; parameters: species or system Equus caballus
Equus caballus [3] = organism: Equus caballus; experiment: Inhibition of horse erythrocytes trypsin like activity of beta2-20S proteasome using z-ARR-AMC as substrate at 100 uM measured for 60 mins by fluorescence assay
Equus caballus [4] = organism: Equus caballus; experiment: Inhibition of horse erythrocytes caspase like activity of beta1-20S proteasome using z-LLE-AMC as substrate at 100 uM measured for 60 mins by fluorescence assay
Saccharomyces cerevisiae = experiment: Inhibition of yeast 20S proteasome
[5] = Chemical stability of the compound under aqueous condition assessed as drug transformation; assay type: physicochemical; settings: buffer
[6] = Cytotoxicity against mouse NIH/3T3 cells assessed as cell viability at 20 umol/L after 2 hrs by MTT assay; assay type: cell-based, NIH3T3; settings: read-out: Activity
[7] = target: Proteasome subunit beta type-2 (Mus musculus) (UniProt Q9R1P3); experiment: Inhibition of trypsin like activity of beta2-20S proteasome in mouse NIH-3T3 cells at 2 times IC50; assay type: cell-based; settings: NIH3T3
[8] = Chemical stability of the compound under aqueous condition; assay type: physicochemical; settings: buffer
[9] = (§1) Cytotoxicity against mouse NIH/3T3 cells assessed as cell viability at 80 umol/L after 2 hrs by MTT assay; assay type: cell-based, NIH3T3; settings: NIH/3T3 cells, read-out: Activity
[10] = Cytotoxicity against mouse NIH/3T3 cells assessed as cell viability at 1 to 40 umol/L after 2 hrs by MTT assay; assay type: cell-based, NIH3T3; settings: read-out: Activity
[11] = Cytotoxicity against mouse NIH/3T3 cells assessed as cell viability at 0.5 to 10 umol/L after 2 hrs by MTT assay; assay type: cell-based, NIH3T3; settings: read-out: Activity
NIH3T3 [12] = experiment: Cytotoxicity against mouse NIH/3T3 cells assessed as cell viability at 10 to 100 umol/L after 2 hrs by MTT assay; assay type: cell-based; settings: nih3t3, 2 h
NIH3T3 [13] = experiment: Cytotoxicity against mouse NIH/3T3 cells assessed as cell viability after 2 hrs by MTT assay; assay type: cell-based; settings: nih3t3, 2 h
[14] = Cytotoxicity against mouse NIH/3T3 cells assessed as cell viability at 40 umol/L after 2 hrs by MTT assay; assay type: cell-based, NIH3T3; settings: read-out: Activity
NIH3T3 [15] = experiment: as §1; assay type: cell-based; settings: nih3t3, 2 h, 80 µM
[16] = Cytotoxicity against mouse NIH/3T3 cells assessed as cell viability at 10 umol/L after 2 hrs by MTT assay; assay type: cell-based, NIH3T3; settings: read-out: Activity

Proteasome subunit beta type-2 (Mus musculus), sequence (Q9R1P3 whole entry): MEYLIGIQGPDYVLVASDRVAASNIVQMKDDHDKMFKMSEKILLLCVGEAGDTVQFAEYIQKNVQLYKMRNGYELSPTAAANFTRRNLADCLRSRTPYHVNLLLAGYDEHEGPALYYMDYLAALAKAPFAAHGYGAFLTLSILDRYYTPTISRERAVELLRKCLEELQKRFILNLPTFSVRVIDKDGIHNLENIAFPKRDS

Row | Structure (SMILES) | inhibition (Equus caballus [1]) | pIC50 [2] | inhibition (Equus caballus [3]) | inhibition (Equus caballus [4]) | inhibition (Saccharomyces cerevisiae) | also measured
1 | CCCC[Se]1(Br)c2ccccc2[C@@H](C)[O+]1C (stereo partly drawn) | inactive | 4.59 | > 50% | inactive | inactive | 
2 | CCCC[Te]c1ccccc1[C@H](C)OC |  |  | inactive |  |  | 
3 | CCCC[Se]1(Br)c2ccccc2[C@H](C)[O+]1C (stereo partly drawn) | inactive | 4.72 | > 50% | inactive | inactive | 
4 | CCCC[Se]1(Br)c2ccccc2C[O+]1C.[Br-] (stereo not drawn) | inactive | 4.80 | 90% | inactive | inactive | Stability [5]: Unstable; viability at 2 h, 20 µM [6]: 75%; inhibition [7]: Active
5 | CCCC[Te]c1ccccc1COC |  |  | inactive |  |  | 
6 | CCCC[Se]1(Cl)c2ccccc2[C@H](C)[O+]1C (stereo partly drawn) | inactive | 4.49 | > 50% | inactive | inactive | 
7 | CCCC[Se]1(Cl)c2ccccc2[C@@H](C)[O+]1C (stereo partly drawn) | inactive | 4.47 | > 50% | inactive | inactive | 
8 | CCCC[Te](Br)(Br)c1ccccc1[C@H](C)OC | inactive | 4.82 | > 50% | inactive | inactive | 
9 | CCCC[Se]c1ccccc1[C@@H](C)OC |  |  | inactive |  |  | 
10 | CCCC[Se]c1ccccc1COC |  |  | inactive |  |  | 
11 | CCCC[Se]c1ccccc1[C@H](C)OC |  |  | inactive |  |  | 
12 | CCCC[Te](Br)(Br)c1ccccc1COC | inactive | 5.40 | 90% | inactive | inactive | Stability [8]: Stable; viability at 2 h, 80 µM [9]: > 50%; viability at 2 h [10]: 60%; inhibition [7]: inactive
13 | CCCC[Te](Cl)(Cl)c1ccccc1[C@@H](C)OC | inactive | 5.40 | > 50% | inactive | inactive | 
14 | CCCC[Te]c1ccccc1[C@@H](C)OC |  |  | inactive |  |  | 
15 | CCCC[Te](Cl)(Cl)c1ccccc1COC | inactive | 5.46 | 90% | inactive | inactive | Stability [8]: Stable; viability at 2 h [11]: 60%; Activity (NIH3T3 [12]): Non-toxic; inhibition [7]: inactive
16 | CCCC[Se]1(Cl)c2ccccc2C[O+]1C.[Cl-] (stereo not drawn) | inactive | 4.46 | 90% | inactive | inactive | Stability [5]: Unstable; Activity (NIH3T3 [13]): Dose-dependent effect; viability at 2 h, 40 µM [14]: 40%; Activity (NIH3T3 [15]): Non-toxic; viability at 2 h, 10 µM [16]: 50%; inhibition [7]: Active
17 | CCCC[Te](Cl)(Cl)c1ccccc1[C@H](C)OC | inactive | 5.26 | > 50% | inactive | inactive | 
18 | CCCC[Te](Br)(Br)c1ccccc1[C@@H](C)OC | inactive | 5.10 | 90% | inactive | inactive | 
